Where two headings read alike, the source gives them in different places.
How the values were obtained:
[1] = biological target: recombinant human NF-kappaB-inducing kinase (NIK/MAP3K14) (Homo sapiens, UniProt Q99558); assay: Inhibition of auto-phosphorylation of recombinant human NIK/MAP3K14 activity (AlphaScreen), Biological Assay A; assay type: biochemical; conditions: averaged values over all measurements on all batches
Procedure: Inhibition of Auto-Phosphorylation of Recombinant Human NF-kappaB-Inducing Kinase (NIK/MAP3K14) Activity (AlphaScreen®)
NIK/MAP3K14 auto-phosphorylation activity was measured using the AlphaScreen® (αscreen) format (Perkin Elmer). All compounds tested were dissolved in dimethyl sulfoxide (DMSO) and further dilutions were made in assay buffer. Final DMSO concentration was 1% (v/v) in assays. Assay buffer was 50 mM Tris pH 7.5 containing 1 mM EGTA (ethylene glycol tetraacetic acid), 1 mM DTT (dithiothreitol), 0.1 mM Na3VO4, 5 mM MgCl2, 0.01% Tween® 20. Assays were carried out in 384 well Alphaplates (Perkin Elmer). Incubations consisted of compound, 25 microM Adenosine-5′-triphosphate (ATP), and 0.2 nM NIK/MAP3K14. Incubations were initiated by addition of GST-tagged NIK/MAP3K14 enzyme, carried out for 1 h at 25° C. and terminated by addition of stop buffer containing anti-phospho-IKK Ser176/180 antibody. Protein A Acceptor and Glutathione-Donor beads were added before reading using an EnVision® Multilabel Plate Reader (Perkin Elmer). Signal obtained in the wells containing blank samples was subtracted from all other wells and IC50's were determined by fitting a sigmoidal curve to % inhibition of control versus Log10 compound concentration.

[2] = system: P-IKKα levels in L363 (NIK translocated multiple myeloma) cells; assay: Effect of compounds on P-IKKα levels in L363 cells (Mesoscale sandwich immuno-assay), Biological Assay B; assay type: cell-based, human; conditions: 2 hr treatment, averaged values, read-out: Inhibition of pIKKα_L-363 (IC50 (nM))
Procedure: Effect of Compounds on P-IKKα Levels in L363 (NIK Translocated Multiple Myeloma) Cells
All compounds tested were dissolved in DMSO and further dilutions were made in culture medium. Final DMSO concentration was 1% (v/v) in cell assays. The human L363 cells (ATCC) were cultured in RPMI 1640 medium supplemented with GlutaMax and 10% fetal calf serum (PAA). Cells were routinely maintained at densities of 0.2×10^6 cells per ml-1×10^6 cells per ml at 37° C. in a humidified 5% CO2 atmosphere. Cells were passaged twice a week splitting back to obtain the low density. Cells were seeded in 96 well plates (Nunc 167008) at 2×10^6 per ml media in a volume of 75 μl per well plus 25 μl 1 μg/ml recombinant human B-cell activating factor (BAFF/BLyS/TNFSF13B). Seeded cells were incubated at 37° C. in a humidified 5% CO2 atmosphere for 24 hr. Drugs and/or solvents were added (20 μl) to a final volume of 120 μl. Following 2 hr treatment plates were removed from the incubator and cell lysis was achieved by the addition of 30 μl 5× lysis buffer followed by shaking on a plate shaker at 4° C. for 10 min. At the end of this incubation lysed cells were centrifuged at 800×g for 20 min at 4° C. and the lysate was assessed for P-IKKα levels by sandwich immuno-assay carried out in anti-rabbit antibody coated Mesoscale plates. Within an experiment, the results for each treatment were the mean of 2 replicate wells. For initial screening purposes, compounds were tested using an 8 point dilution curve (serial 1:3 dilutions). For each experiment, controls (containing MG132 and BAFF but no test drug) and a blank incubation (containing MG132 and BAFF and 10 μM ADS125117, a test concentration known to give full inhibition) were run in parallel. The blank incubation value was subtracted from all control and sample values. To determine the IC50 a sigmoidal curve was fitted to the plot of % inhibition of control P-IKKα levels versus Log10 compound concentration.
Note: Compounds 237 and 238 were tested at a maximum top concentration of 823 nM.

[3] = system: JJN-3 (NIK translocated) multiple myeloma cells; assay: Antiproliferative activity on JJN-3 multiple myeloma cells (CellTiter-Glo, 96 hr), Biological Assay C; assay type: cell-based, human; conditions: JJN-3 (NIK translocated) cells, averaged values, read-out: JJN-3 Proliferation inhibition (IC50 (nM))
Procedure: (§1) Determination of Antiproliferative Activity on JJN-3 (NIK Translocated) and KMS12-BM (NIK WT) Multiple Myeloma Cells
(§2) All compounds tested were dissolved in DMSO and further dilutions were made in culture medium. Final DMSO concentration was 0.3% (v/v) in cell proliferation assays. Viability was assessed using CellTiter-Glo cell viability assay kit (Promega). The human JJN-3 and KMS12-BM cells (DSMZ) were cultured in RPMI 1640 medium supplemented with 2 mM L-glutamine, and 10% fetal calf serum (PAA). Cells were routinely kept as suspension cells at 37° C. in a humidified 5% CO2 atmosphere. Cells were passaged at a seeding density of 0.2×10^6/ml twice a week. Cells were seeded in black tissue culture treated 96-well plates (Perkin Elmer). Densities used for plating ranged from 15000 (JJN3) to 20000 (KMS12BM) cells per well in a total volume of 135 μl medium. Drugs and/or solvents were added (15 μl) to a final volume of 150 μl. Following 96 hr of treatment, plates were removed from the incubator and allowed to equilibrate to room temperature for approx 10 min. 75 μl CellTiter-Glo reagent was added to each well that was then covered (Perkin Elmer Topseal) and shaken on plate shaker for 10 min. Luminescence was measured on a HTS Topcount (Perkin Elmer).
(§3) Within an experiment, the results for each treatment were the mean of 2 replicate wells. For initial screening purposes, compounds were tested using a 9 point dilution curve (serial 1:3 dilutions). For each experiment, controls (containing no drug) and a blank incubation (containing cells read at the time of compound addition) were run in parallel. The blank value was subtracted from all control and sample values. For each sample, the mean value for cell growth (in relative light units) was expressed as a percentage of the mean value for cell growth of the control.

[4] = system: KMS12-BM (NIK WT) multiple myeloma cells; assay: Antiproliferative activity on KMS12-BM multiple myeloma cells (CellTiter-Glo, 96 hr), Biological Assay C; assay type: cell-based, human; conditions: averaged values, read-out: KMS-12 Proliferation inhibition (IC50 (nM))
Procedure: as §1, §2, §3

Chain of recombinant human NF-kappaB-inducing kinase (NIK/MAP3K14) (Q99558 whole entry): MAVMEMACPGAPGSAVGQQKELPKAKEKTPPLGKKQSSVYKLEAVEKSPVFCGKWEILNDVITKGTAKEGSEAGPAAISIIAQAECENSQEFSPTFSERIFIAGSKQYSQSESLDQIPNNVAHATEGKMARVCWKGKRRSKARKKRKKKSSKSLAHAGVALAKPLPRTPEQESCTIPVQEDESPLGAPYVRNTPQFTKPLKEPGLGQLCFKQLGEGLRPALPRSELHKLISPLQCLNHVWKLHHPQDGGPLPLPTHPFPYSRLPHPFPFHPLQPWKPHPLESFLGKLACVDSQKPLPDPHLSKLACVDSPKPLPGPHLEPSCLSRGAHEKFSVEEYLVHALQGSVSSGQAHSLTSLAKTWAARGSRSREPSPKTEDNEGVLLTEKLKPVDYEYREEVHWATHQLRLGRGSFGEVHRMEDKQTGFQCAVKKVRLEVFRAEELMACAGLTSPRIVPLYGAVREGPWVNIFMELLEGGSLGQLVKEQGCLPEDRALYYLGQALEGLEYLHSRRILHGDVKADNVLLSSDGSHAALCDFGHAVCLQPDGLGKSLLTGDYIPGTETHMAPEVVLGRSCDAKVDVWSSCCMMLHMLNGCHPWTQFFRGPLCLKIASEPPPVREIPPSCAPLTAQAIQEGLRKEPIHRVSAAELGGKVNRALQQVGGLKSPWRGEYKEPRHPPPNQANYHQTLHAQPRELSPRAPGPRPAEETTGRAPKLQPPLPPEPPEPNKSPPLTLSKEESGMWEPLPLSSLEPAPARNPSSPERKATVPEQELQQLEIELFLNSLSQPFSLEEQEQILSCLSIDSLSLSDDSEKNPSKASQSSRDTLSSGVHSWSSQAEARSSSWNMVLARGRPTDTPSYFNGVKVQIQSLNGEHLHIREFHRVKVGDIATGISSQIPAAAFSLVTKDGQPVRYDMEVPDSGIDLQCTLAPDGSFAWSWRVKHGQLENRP

Row | IC50 [1] [nM] | IC50 ([2]; Homo sapiens, L-363, 2 h) [nM] | IC50 ([3]; Homo sapiens, JJN-3, 96 h) [nM] | IC50 ([4]; Homo sapiens, KMS-12-BM, 96 h) [nM] | IC50 [2] [nM] | IC50 [3] [nM] | IC50 [4] [nM] | melting point [°C] | Compound
1 | 1.4 | 6.6 | 141 | > 10000 | – | – | – | – | CC(C)Oc1ccc(CO)cc1Nc1nccc(-c2cc(C#N)c3c(c2)[C@@](C)(CO)CN3)n1 [Compound 154]
2 | 214 | > 832 | – | – | – | – | – | – | C[C@]1(CO)CNc2c(C#N)cc(-c3ccnc(Nc4ccccc4C4CCCN4)n3)cc21 (single isomer, unassigned) [Compound 237]
3 | 17.4 | 436 | – | – | – | – | – | – | Cc1ccc(C#N)cc1Nc1nccc(-c2cc(C#N)c3c(c2)[C@@](C)(COC(=O)CN2CCN(C)CC2)CN3)n1 [Compound 145]
4 | 1.8 | 6 | 617 | > 10000 | – | – | – | – | Cc1cc(F)c(C#N)cc1Nc1nccc(-c2cc(C#N)c3c(c2)[C@@](C)(CO)CN3)n1 [Compound 11]
5 | 4.1 | 25.7 | 138 | 4900 | – | – | – | – | CC(C)(O)COc1ccc(C#N)cc1Nc1nccc(-c2cc(C#N)c3c(c2)[C@@](C)(CO)CN3)n1 [Compound 12]
6 | 47.9 | 75.9 | 91 | ~5130 | – | – | – | – | COc1cc(N2CCOCC2)c(Cl)cc1Nc1nccc(-c2cc(C#N)c3c(c2)C(C)(C)CN3)n1 [Compound 79]
7 | 4.5 | 6 | 13 | 2820 | – | – | – | – | COc1cc(CO)c(Cl)cc1Nc1nccc(-c2cc(C#N)c3c(c2)C(C)(CO)CN3)n1 (stereo not shown) [Compound 24]
8 | 2.3 | 7.8 | 272 | > 10000 | – | – | – | – | Cc1cc(F)c(CO)cc1Nc1nccc(-c2cc(C#N)c3c(c2)[C@@](C)(CO)CN3)n1 [Compound 152]
9 | 11.3 | 41.7 | 57 | > 10000 | – | – | – | – | COc1cc(S(C)(=O)=O)c(Cl)cc1Nc1nccc(-c2cc(C#N)c3c(c2)C(C)(C)CN3)n1 [Compound 85]
10 | 33.1 | > 10000 | – | – | – | – | – | – | Cc1ccc(C2CN(C)C2)cc1Nc1nccc(-c2cc(C#N)c3c(c2)[C@@](C)(CO)CN3)n1 [Compound 210]
11 | 2.5 | 4.5 | 51 | 891 | – | – | – | – | COc1cc(C(=O)NC2CCOCC2)ccc1Nc1nccc(-c2cc(C#N)c3c(c2)C(C)(CO)CN3)n1 (stereo not shown) [Compound 21]
12 | 19.1 | 12.9 | 251 | ~7590 | – | – | – | – | COc1cc(CO)c(Cl)cc1Nc1nccc(-c2cc(C#N)c3c(c2)C(C)(C)CN3)n1 [Compound 84]
13 | 955 | – | – | – | > 832 | – | – | – | C[C@]1(CO)CNc2c(C#N)cc(-c3ccnc(Nc4ccccc4C4CCCN4)n3)cc21 (single isomer, unassigned) [Compound 238]
14 | 4.3 | 4.8 | 58 | > 10000 | – | – | – | – | C[C@]1(CO)CNc2c(C#N)cc(-c3ccnc(Nc4ccc(S(C)(=O)=O)cc4CCC4CC4)n3)cc21 [Compound 2]
15 | 1.7 | 11.5 | 63 | ~1580 | – | – | – | – | Cc1cc(P(C)(C)=O)c(Cl)cc1Nc1nccc(-c2cc(C#N)c3c(c2)[C@@](C)(CO)CN3)n1 [Compound 20]
16 | 7.4 | 11.5 | 67 | 1230 | – | – | – | – | C[C@]1(CO)CNc2c(C#N)cc(-c3ccnc(Nc4cc(C#N)ccc4OC4CC4)n3)cc21 [Compound 10]
17 | 0.9 | – | – | – | 2.8 | 91 | 5500 | – | Cc1ccc(C#N)cc1Nc1nccc(-c2cc(C#N)c3c(c2)[C@@](C)(CO)CN3)n1 [Compound 134]
18 | 1.8 | 1.3 | 29 | > 10000 | – | – | – | – | Cc1cc(CCN2CCOCC2)c(C#N)cc1Nc1nccc(-c2cc(C#N)c3c(c2)[C@@](C)(CO)CN3)n1 [Compound 173]
19 | 10 | 102 | – | – | – | – | – | – | Cc1ccc(COC(C)C)cc1Nc1nccc(-c2cc(C#N)c3c(c2)[C@@](C)(CO)CN3)n1 [Compound 149]
20 | 4 | – | 170 | > 10000 | – | – | – | 274 | CC1(CO)CNc2c(C#N)cc(-c3ccnc(Nc4cc(C#N)ccc4Cl)n3)cc21 (stereo not shown) [Compound 32]
21 | 8.9 | – | 447 | > 10000 | – | – | – | > 250 | COc1ccc(Cl)cc1Nc1ncc(F)c(-c2cc(C#N)c3c(c2)[C@@](C)(CO)CN3)n1 [Compound 48]
22 | 8.5 | – | 12 | 120 | – | – | – | 193 | COc1cc(C(=O)N2CCNC(C#N)C2)c(Cl)cc1Nc1nccc(-c2cc(C#N)c3c(c2)C(C)(C)CN3)n1 (stereo not shown) [Compound 121]
23 | 3.9 | – | 2190 | > 10000 | – | – | – | 237 | C[C@]1(CO)CNc2c(C#N)cc(-c3ccnc(Nc4cc(C#N)ccc4C(F)(F)F)n3)cc21 [Compound 70]
24 | 49 | – | 447 | 1350 | – | – | – | 104 | CN1CCCC(Oc2ccc(Cl)cc2Nc2nccc(-c3cc(C#N)c4c(c3)C(C)(C)CN4)n2)C1 (stereo not shown) [Compound 101]
25 | 31.6 | 302 | – | – | – | – | – | – | Cc1ccc(CN2CCOCC2)c(Nc2nccc(-c3cc(C#N)c4c(c3)[C@@](C)(CO)CN4)n2)c1 [Compound 222]
26 | 41.7 | – | 676 | > 10000 | – | – | – | 217 | CC1(CO)CNc2c(C#N)cc(-c3ccnc(Nc4cc(Cl)ccc4OC(F)(F)F)n3)cc21 (stereo not shown) [Compound 52]
27 | 51.3 | – | > 10000 | > 10000 | – | – | – | 224 | COc1ccc(C(F)(F)F)cc1Nc1nccc(-c2cc(C#N)c3c(c2)C(C)(CO)CN3)n1 (stereo not shown) [Compound 30]
28 | 4.3 | – | 20 | > 10000 | – | – | – | > 260 | COc1cc(C(=O)NCC(C)O)c(Cl)cc1Nc1nccc(-c2cc(C#N)c3c(c2)C(C)(C)CN3)n1 (stereo not shown) [Compound 112]

Source: patent US11180487B2, “Substituted cyanoindoline derivatives as NIK inhibitors” (Janssen Pharmaceutica NV, priority 2016, dated 2021)
